{"source": "paper PMC10224329", "about": "“Design, Synthesis, and Antiproliferative Activity of Benzopyran-4-One-Isoxazole Hybrid Compounds” (Molecules, 2023)", "key": {"[1]": {"system": "human embryonic kidney (HEK-293) cell lines", "assay": "MTS cell viability assay, non-cancerous cells", "assay_type": "cell-based", "conditions": "Homo sapiens", "source_text": "(§1) The compounds were further screened for their in vitro cytotoxicity against non-cancerous normal cell lines, viz., human embryonic kidney (HEK-293) and normal pig kidney (LLCPK) cell lines. These cell lines were selected to determine whether the compounds had selectivity against cancerous cells in contrast to non-cancerous cells. The data obtained is shown in Figure 3a–b (cf. Supplementary Materials for the data obtained for intermediates and starting materials Figure S28.7–S28.8, page no. 77–78).\n(§2) Cell viability assays were performed using the MTS protocol. The in vitro cytotoxicity of the conjugates was evaluated using six human cancer cell lines, one human normal kidney cell line, and one mammalian normal kidney cell line, which included human leukemia carcinoma cell lines (CCRF-CEM), human ovarian adenocarcinoma cell lines (SKOV-3), human breast tumor cell lines (MDA-MB-231), human prostate cancer cell lines (PC-3), androgen-independent human prostate cancer cell lines (DU-145), human renal carcinoma (iSLK), human embryonic kidney cell lines (HEK-293), and normal mammalian kidney cell line (LLCPK) to determine the toxicity of the synthesized conjugates. CCRF-CEM cells were seeded at 50,000 cells in 0.1 mL per well in 96-well plates, and in the case of SKOV-3, MDA-MB-231, PC-3, DU-145, HEK-293, and LLCPK cell lines, the cells were seeded at 5000 cells in 0.1 mL per well in 96-well plates. The CCRF-CEM cells were seeded in RPMI-1640 media containing 2mM L-glutamine, 1.5 g/L sodium bicarbonate, supplemented with fetal bovine serum (FBS) 10% media, SKOV-3, MDA-MB-231, and LLCPK cells were seeded in MEME media with Earle’s salts and sodium bicarbonate, without L-glutamine, supplemented with fetal bovine serum (FBS) 10%, PC-3 cells were seeded in DMEM:F-12 containing 1:1 mixture with L-glutamine with HEPES, supplemented with fetal bovine serum (FBS) 10%, and DU-145 and HEK-293 cells were seeded in DMEM containing 4500 mg/L glucose, L-glutamine, and sodium bicarbonate, without sodium pyruvate, supplemented with FBS (10%), 24 h prior to the experiment. The compounds at a final concentration of 25 µM (higher concentration stock solution prepared in DMSO) were added to each well in triplicate and incubated for 24 and 72 h at 37 °C in a humidified atmosphere (95% air and 5% CO2). The cell viability was then determined by measuring the absorbance of the formazan product at 490 nm using a microplate reader using a SpectraMax M2 microplate spectrophotometer, Molecular Devices, San Jose, CA, USA. The percentage of cell survival was calculated as [(OD value of cells treated with the test mixture of compounds) − (OD value of culture medium)]/[(OD value of control cells) − (OD value of culture medium)] × 100%. IC50 values of compounds were calculated using non-linear regression analysis in GraphPad Prism (Boston, MA, USA)."}, "[2]": {"system": "normal pig kidney (LLCPK) cell lines", "assay": "MTS cell viability assay, non-cancerous cells", "assay_type": "cell-based", "conditions": "Sus scrofa, conjugates at 25 μM, 72 h", "source_text": "as §1, §2"}}}
{"smiles": "Cc1noc(C)c1C(=O)OCc1coc2ccccc2c1=O", "note": "[Compound 5a, (4-Oxo-4H-1-benzopyran-3-yl)methyl 3,5-dimethylisoxazole-4-carboxylate]", "values": [{"measurement": "IC50", "setting": "[1]; HEK293, normal HEK-293 cells, average of three independent tests in triplicate", "result": 293, "unit": "µM"}, {"measurement": "inhibition at 25 µM", "setting": "[1]; HEK293, conjugates at 25 μM, 72 h", "result": 37, "unit": "%"}, {"measurement": "inhibition at 25 µM", "setting": "[2]", "result": 57, "unit": "%"}]}
